In patent US9695171B2, “3,4-disubstituted-1 H-pyrrolo[2,3-b]pyridines and 4,5-disubstituted-7H-pyrrolo[2,3-c]pyridazines as LRRK2 inhibitors” (Pfizer Inc., priority 2013, dated 2017) one finds EC50 data, which are given here for 30 molecules.

The experiment deals with T1, GST-tagged truncated LRRK2 (Homo sapiens, UniProt Q5S007).
T1 construct: GST-tagged truncated LRRK2 from Invitrogen (Cat # PV4874); GST; purchased Invitrogen PV4874
As to the kind of experiment: LRRK2 kinase assay (Lantha Screen). Type of experiment: biochemical. The conditions noted are these: 1 mM ATP (head); a = geometric mean of >=4 determinations, b = single determination; read-out: LRRK2 LANTHA EC50 at 1 mM ATP; Geometric mean of 2-3 determinations unless otherwise indicated. The protocol:
LRRK2 kinase activity was measured using Lantha Screen technology from Invitrogen. GST-tagged truncated LRRK2 from Invitrogen (Cat # PV4874) was incubated with a fluorescein-labeled peptide substrate based upon ezrin/radixin/moesin (ERM), also known as LRRKtide (Invitrogen cat # PR8976A), in the presence of a dose response of compound. Upon completion, the assay was stopped and detected with a terbium labeled anti-phospho-ERM antibody (Invitrogen, cat # PR8975A). […] The compound dose response was prepared by diluting compound to a top concentration of 3.16 mM in 100% DMSO and serial diluted by half-log in DMSO 11 times. Aliquots (3.5 μL) of the 100% DMSO dose response were mixed with 46.5 μL water then 1 μL of this mixture was added to the 3 μL substrate mix in the 384-well plate. The kinase reaction was started with 3 μL of a working solution of LRRK2 enzyme at a concentration of 4 μg/mL. […] The reaction was allowed to progress at room temperature for two hours and then stopped with the addition of 7 μL of detection buffer (20 mM Tris pH 7.6, 0.01% NP-40, 0.02% NaN3, 6 mM EDTA with 2 nM terbium labeled anti-phospho-ERM). After an incubation of 1 hour at room temperature, the plate was read on an Envision with an excitation wavelength of 340 nm and a reading emission at both 520 nm and 495 nm. The ratio of the 520 nm and 495 nm emission was used to analyze the data.

T1 sequence (Q5S007 970-2527 limits assumed): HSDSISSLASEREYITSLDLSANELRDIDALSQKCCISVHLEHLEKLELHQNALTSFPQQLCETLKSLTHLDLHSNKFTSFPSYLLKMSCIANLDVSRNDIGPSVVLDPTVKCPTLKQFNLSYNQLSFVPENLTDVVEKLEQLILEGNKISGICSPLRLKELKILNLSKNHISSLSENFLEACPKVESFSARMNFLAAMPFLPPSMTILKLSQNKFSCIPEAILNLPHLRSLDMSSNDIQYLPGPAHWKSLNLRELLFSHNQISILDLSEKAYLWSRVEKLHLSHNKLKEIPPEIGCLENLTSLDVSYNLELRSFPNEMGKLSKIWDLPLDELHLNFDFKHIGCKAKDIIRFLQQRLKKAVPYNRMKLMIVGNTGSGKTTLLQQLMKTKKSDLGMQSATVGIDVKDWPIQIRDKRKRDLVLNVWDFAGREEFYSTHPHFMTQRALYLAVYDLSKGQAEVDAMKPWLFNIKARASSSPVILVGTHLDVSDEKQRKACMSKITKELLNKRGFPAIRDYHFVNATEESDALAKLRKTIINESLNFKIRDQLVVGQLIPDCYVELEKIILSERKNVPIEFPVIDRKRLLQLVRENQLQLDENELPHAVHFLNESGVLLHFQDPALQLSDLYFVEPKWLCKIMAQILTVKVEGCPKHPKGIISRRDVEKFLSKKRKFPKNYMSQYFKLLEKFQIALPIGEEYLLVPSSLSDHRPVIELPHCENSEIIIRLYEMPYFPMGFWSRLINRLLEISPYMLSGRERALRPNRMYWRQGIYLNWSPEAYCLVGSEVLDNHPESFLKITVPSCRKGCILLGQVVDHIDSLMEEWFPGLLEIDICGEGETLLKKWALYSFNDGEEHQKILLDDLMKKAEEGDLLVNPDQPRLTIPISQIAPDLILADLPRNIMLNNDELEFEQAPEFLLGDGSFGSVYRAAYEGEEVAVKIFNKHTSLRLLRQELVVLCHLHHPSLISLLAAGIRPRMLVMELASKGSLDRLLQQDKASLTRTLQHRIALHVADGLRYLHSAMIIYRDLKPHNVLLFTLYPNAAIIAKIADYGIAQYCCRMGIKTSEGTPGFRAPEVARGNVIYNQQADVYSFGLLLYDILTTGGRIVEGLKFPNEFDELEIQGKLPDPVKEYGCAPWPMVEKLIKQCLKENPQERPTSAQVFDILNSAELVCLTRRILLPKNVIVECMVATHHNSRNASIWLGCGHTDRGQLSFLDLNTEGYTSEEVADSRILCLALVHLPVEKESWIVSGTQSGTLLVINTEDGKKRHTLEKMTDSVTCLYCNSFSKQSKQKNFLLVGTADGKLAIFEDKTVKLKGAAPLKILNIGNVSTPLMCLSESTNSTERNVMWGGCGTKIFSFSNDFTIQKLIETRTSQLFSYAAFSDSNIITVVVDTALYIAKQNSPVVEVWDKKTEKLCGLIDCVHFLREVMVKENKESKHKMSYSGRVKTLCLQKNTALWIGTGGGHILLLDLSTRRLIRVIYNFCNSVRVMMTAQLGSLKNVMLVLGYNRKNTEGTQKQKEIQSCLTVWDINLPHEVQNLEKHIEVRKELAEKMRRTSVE

On to `N#Cc1cccc(-c2c[nH]c3nccc(N4CCC(O)CC4)c23)c1` [Example 70, 3-[4-(4-hydroxypiperidin-1-yl)-1H-pyrrolo[2,3-b]pyridin-3-yl]benzonitrile], for which the EC50 turned out to be 85.3 nM. Consider `COC1CCCN(c2ccnc3[nH]cc(-c4cccc(C#N)c4)c23)C1` (stereo not drawn) [Example 71, 3-[4-(3-methoxypiperidin-1-yl)-1H-pyrrolo[2,3-b]pyridin-3-yl]benzonitrile], for which the EC50 is 95.8 nM.

Consider `N#Cc1cccc(-c2c[nH]c3nccc(N4C[C@H]5C[C@@H](C4)O5)c23)c1` [Example 72, 3-[4-(6-oxa-3-azabicyclo[3.1.1]hept-3-yl)-1H-pyrrolo[2,3-b]pyridin-3-yl]benzonitrile], for which the EC50 stood at 68.3 nM. In the case of `N#Cc1cccc(-c2c[nH]c3nccc(N4C[C@@H](F)[C@H](F)C4)c23)c1` [Example 73, 3-{4-[(3R,4R)-3,4-difluoropyrrolidin-1-yl]-1H-pyrrolo[2,3-b]pyridin-3-yl}benzonitrile] it was 44.4 nM; in that of `N#Cc1cccc(-c2c[nH]c3nccc(N4CCC(F)CC4)c23)c1` [Example 74, 3-[4-(4-fluoropiperidin-1-yl)-1H-pyrrolo[2,3-b]pyridin-3-yl]benzonitrile], 39 nM; in that of `N#Cc1cccc(-c2c[nH]c3nccc(N4CC[C@@H](F)C4)c23)c1` [Example 75, 3-{4-[(3R)-3-fluoropyrrolidin-1-yl]-1H-pyrrolo[2,3-b]pyridin-3-yl}benzonitrile], 38.7 nM. The result for `C[C@@H]1CN(c2ccnc3[nH]cc(-c4cccc(C#N)c4)c23)CCO1` [Example 76, 3-{4-[(2R)-2-methylmorpholin-4-yl]-1H-pyrrolo[2,3-b]pyridin-3-yl}benzonitrile] reads 30.6 nM; that for `N#Cc1cccc(-c2c[nH]c3nccc(N4CCCC4)c23)c1` [Example 77, 3-[4-(pyrrolidin-1-yl)-1H-pyrrolo[2,3-b]pyridin-3-yl]benzonitrile], 14.1 nM. With `N#Cc1cccc(-c2c[nH]c3nccc(N4CC[C@H](F)C4)c23)c1` [Example 78, 3-{4-[(3S)-3-fluoropyrrolidin-1-yl]-1H-pyrrolo[2,3-b]pyridin-3-yl}benzonitrile], the EC50 was determined as 24 nM. The result for `N#Cc1cccc(-c2c[nH]c3nccc(N4CCCC(F)(F)C4)c23)c1` [Example 79, 3-[4-(3,3-difluoropiperidin-1-yl)-1H-pyrrolo[2,3-b]pyridin-3-yl]benzonitrile] reads 99.2 nM; that for `C[C@H]1CN(c2ccnc3[nH]cc(-c4cccc(C#N)c4)c23)CCO1` [Example 80, 3-{4-[(2S)-2-methylmorpholin-4-yl]-1H-pyrrolo[2,3-b]pyridin-3-yl}benzonitrile], 10.5 nM.

As for `O=c1cc(-c2c[nH]c3nccc(N4CCOCC4)c23)cc[nH]1` [Example 81, 4-[4-(morpholin-4-yl)-1H-pyrrolo[2,3-b]pyridin-3-yl]pyridin-2(1H)-one], the EC50 came out at 11.1 nM. `COC(=O)c1cnc2[nH]cc(-c3cccc(C#N)c3)c2c1N1CCOCC1` [Example 82, methyl 3-(3-cyanophenyl)-4-(morpholin-4-yl)-1H-pyrrolo[2,3-b]pyridine-5-carboxylate]: the EC50 is 12.3 nM.

As to `N#CCc1cnc2[nH]cc(-c3cccc(C#N)c3)c2c1N1CCOCC1` [Example 83, 3-[5-(cyanomethyl)-4-(morpholin-4-yl)-1H-pyrrolo[2,3-b]pyridin-3-yl]benzonitrile], the EC50 is 106 nM. Take `COCc1cnc2[nH]cc(-c3cccc(C#N)c3)c2c1N1CCOCC1` [Example 84, 3-[5-(methoxymethyl)-4-(morpholin-4-yl)-1H-pyrrolo[2,3-b]pyridin-3-yl]benzonitrile]: the 50% effective concentration (EC50) came out at 63.4 nM. As to `Cn1cc(-c2c[nH]c3nccc(N4CCOCC4)c23)cc1C(N)=O` [Example 85, 1-methyl-4-[4-(morpholin-4-yl)-1H-pyrrolo[2,3-b]pyridin-3-yl]-1H-pyrrole-2-carboxamide], the EC50 stood at 21.7 nM. In the case of `N#Cc1cc(-c2c[nH]c3nccc(N4CCOCC4)c23)c[nH]1` [Example 86, 4-[4-(morpholin-4-yl)-1H-pyrrolo[2,3-b]pyridin-3-yl]-1H-pyrrole-2-carbonitrile], the EC50 amounted to 2.75 nM. In the case of `Cc1[nH]c2nccc(N3CCOCC3)c2c1-c1cc(C#N)n(C)c1` [Example 87, 1-methyl-4-[2-methyl-4-(morpholin-4-yl)-1H-pyrrolo[2,3-b]pyridin-3-yl]-1H-pyrrole-2-carbonitrile] it was 5.46 nM. The result for `N#Cc1cccc(-c2c[nH]c3nccc(-c4ccncc4)c23)c1` [Example 88, 3-[4-(pyridin-4-yl)-1H-pyrrolo[2,3-b]pyridin-3-yl]benzonitrile] reads 9.93 nM.

As to `Cn1cc(-c2c[nH]c3nccc(-c4ccccc4)c23)cn1` [Example 89, 3-(1-methyl-1H-pyrazol-4-yl)-4-phenyl-1H-pyrrolo[2,3-b]pyridine], the EC50 was found to be 13.7 nM. In the case of `N#Cc1cccc(-c2c[nH]c3nncc(N4CCOCC4)c23)c1` [Example 90, 3-[4-(morpholin-4-yl)-7H-pyrrolo[2,3-c]pyridazin-5-yl]benzonitrile], the EC50 is 42.2 nM. For the molecule `N#Cc1cccc(-c2c[nH]c3nccc(-c4cccc(C(=O)NC5CC5)c4)c23)c1` [Example 91, 3-[3-(3-cyanophenyl)-1H-pyrrolo[2,3-b]pyridin-4-yl]-N-cyclopropylbenzamide], the EC50 came to 43.4 nM. The result for `N#Cc1cccc(-c2c[nH]c3nncc(N4CCOCC4)c23)c1F` [Example 92, 2-fluoro-3-[4-(morpholin-4-yl)-7H-pyrrolo[2,3-c]pyridazin-5-yl]benzonitrile] reads 43.7 nM; that for `N#Cc1cccc(-c2c[nH]c3nccc(-c4cccnc4)c23)c1` [Example 93, 3-[4-(pyridin-3-yl)-1H-pyrrolo[2,3-b]pyridin-3-yl]benzonitrile], 45.6 nM.

Turning to `Cn1cc(-c2c[nH]c3nccc(-c4ccc(F)c(F)c4)c23)cn1` [Example 94, 4-(3,4-difluorophenyl)-3-(1-methyl-1H-pyrazol-4-yl)-1H-pyrrolo[2,3-b]pyridine], the EC50 was 45.6 nM. The result for `Cn1cc(-c2c[nH]c3nccc(-c4cc(F)ccc4F)c23)cn1` [Example 95, 4-(2,5-difluorophenyl)-3-(1-methyl-1H-pyrazol-4-yl)-1H-pyrrolo[2,3-b]pyridine] reads 49.5 nM; that for `Cn1cc(-c2c[nH]c3nccc(-c4cccc(F)c4F)c23)cn1` [Example 96, 4-(2,3-difluorophenyl)-3-(1-methyl-1H-pyrazol-4-yl)-1H-pyrrolo[2,3-b]pyridine], 58.9 nM. The result for `Cn1cc(-c2c[nH]c3nccc(-c4cccc(Cl)c4)c23)cn1` [Example 97, 4-(3-chlorophenyl)-3-(1-methyl-1H-pyrazol-4-yl)-1H-pyrrolo[2,3-b]pyridine] reads 63.1 nM; that for `COc1cccc(-c2ccnc3[nH]cc(-c4cnn(C)c4)c23)c1F` [Example 98, 4-(2-fluoro-3-methoxyphenyl)-3-(1-methyl-1H-pyrazol-4-yl)-1H-pyrrolo[2,3-b]pyridine], 85.9 nM. In the case of `CNS(=O)(=O)c1cccc(-c2ccnc3[nH]cc(-c4cccc(C#N)c4)c23)c1` [Example 99, 3-[3-(3-cyanophenyl)-1H-pyrrolo[2,3-b]pyridin-4-yl]-N-methylbenzenesulfonamide] it was 92.5 nM.
